Assay results reported in publication PMC4045134, “Discovery of Triterpenoids as Reversible Inhibitors of α/β-hydrolase Domain Containing 12 (ABHD12)” (PLoS ONE, 2014).
“Also recorded” adds a separate entry of the source. Read-outs that look alike come from different tables or passages of the source.

Assays:
hABHD12 = target: T1, hABHD12 (Homo sapiens, UniProt Q8N2K0); test: Fluorescent glycerol assay of 1-AG hydrolysis in hABHD12-HEK293 lysates; assay type: biochemical; settings: for remaining activity at 10 µM: read-out: Remaining activity at 10 µM % ± s.e.m.; for inhibition at 10 µM: read-out: inhibition of hABHD12 at 10 µM; for Emax: read-out: max inhibition (converted)
T1 construct: expressed in transfected cells; host or cells: HEK293 (transient)
T1 sequence (Q8N2K0 1-398): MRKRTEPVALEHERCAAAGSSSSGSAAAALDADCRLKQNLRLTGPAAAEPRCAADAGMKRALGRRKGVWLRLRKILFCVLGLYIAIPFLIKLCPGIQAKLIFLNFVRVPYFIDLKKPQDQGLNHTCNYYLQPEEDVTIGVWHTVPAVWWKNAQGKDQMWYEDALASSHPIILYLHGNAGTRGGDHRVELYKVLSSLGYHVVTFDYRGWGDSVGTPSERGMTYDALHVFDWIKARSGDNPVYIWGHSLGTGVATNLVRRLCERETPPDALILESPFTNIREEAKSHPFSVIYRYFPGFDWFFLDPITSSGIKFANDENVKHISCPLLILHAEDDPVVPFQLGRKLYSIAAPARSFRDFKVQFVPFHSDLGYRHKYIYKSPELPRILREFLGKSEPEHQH
Protocol: (§1) Glycerol liberated from 1-AG hydrolysis was determined with a sensitive fluorescent assay using lysates of HEK293 cells with transient overexpression of hABHD12, hABHD6 or hMAGL, essentially as previously described. […] Fluorescence (λex 530; λem 590 nm) was monitored using a Tecan Infinite M200 plate reader (Tecan Group Ltd., Männedorf, Switzerland). Inhibitory activities of selected compounds towards FAAH were determined using membranes of hFAAH overexpressing COS-7 cells, essentially as previously described. The final incubation volume (100 µL) contained 1 µg of protein and the substrate concentration was 20 µM (10 nM of ^3H-anandamide having specific activity of 60 Ci/mmol and concentration of 1 mCi/mL).

hMAGL = target: T2, hMAGL (Homo sapiens, UniProt Q99685); test: Fluorescent glycerol assay in hMAGL-HEK293 lysates; assay type: biochemical; settings: read-out: inhibition of MAGL at 10 µM
T2 construct: expressed in transfected cells; host or cells: HEK293 (transient)
T2 sequence (Q99685 1-303): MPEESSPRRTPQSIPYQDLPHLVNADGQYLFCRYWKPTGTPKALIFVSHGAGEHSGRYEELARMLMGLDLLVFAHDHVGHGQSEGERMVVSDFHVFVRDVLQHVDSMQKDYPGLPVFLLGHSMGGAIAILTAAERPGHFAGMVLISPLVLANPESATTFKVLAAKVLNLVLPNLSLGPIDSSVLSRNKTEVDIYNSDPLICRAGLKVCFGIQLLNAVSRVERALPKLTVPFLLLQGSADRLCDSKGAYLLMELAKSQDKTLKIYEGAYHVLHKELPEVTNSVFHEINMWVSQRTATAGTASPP
Protocol: as §1

[1] = hABHD12-HEK293 lysates, 10 µM, NI = no inhibition
[2] = hABHD12-HEK293 lysates, three independent experiments, read-out: -logIC50±s.e.m. (converted)
[3] = hABHD12-HEK293 lysates, read-out: IC50

Row | SMILES | remaining activity at 10 µM (hABHD12; [1]) [%] | also measured
1 | C=C(C)[C@@H]1CC[C@]2(CO)CC[C@]3(C)[C@H](CC[C@@H]4[C@@]5(C)CC[C@H](O)C(C)(C)[C@@H]5CC[C@]43C)[C@@H]12 [Compound 2, Betulin, reference compound] | ~75 | –
2 | C=C(C)[C@@H]1CC[C@]2(C)CC[C@]3(C)[C@H](CC[C@@H]4[C@@]5(C)CC[C@H](O)C(C)(C)[C@@H]5CC[C@]43C)[C@@H]12 [Compound 3, Lupeol, reference compound] | > 100 | –
3 | C[C@H]1[C@H](C)CC[C@]2(C(=O)O)CC[C@]3(C)C(=CC[C@@H]4[C@@]5(C)C[C@@H](O)[C@H](O)[C@@](C)(CO)[C@@H]5CC[C@]43C)[C@H]12 [Compound 5, Asiatic acid, reference compound] | > 100 | hABHD12 inhibitory activity (in words) (hABHD12): did not inhibit hABHD12; also recorded: completely devoid of activity
4 | C[C@H]1[C@H](C)CC[C@]2(C)CC[C@]3(C)C(=CC[C@@H]4[C@@]5(C)CC[C@H](O)C(C)(C)[C@@H]5CC[C@]43C)[C@H]12 [Compound 6, α-Amyrin, reference compound] | > 100 | –
5 | CC1(C)CC[C@]2(C(=O)O)CC[C@]3(C)C(=CC[C@@H]4[C@@]5(C)CC[C@H](O)C(C)(C)[C@@H]5CC[C@]43C)[C@@H]2C1 [Compound 7, Oleanolic acid, reference compound] | ~20 | –
6 | CC1(C)CC[C@]2(C(=O)O)CC[C@]3(C)C(=CC[C@@H]4[C@@]5(C)CC[C@H](O)[C@@](C)(CO)[C@@H]5CC[C@]43C)[C@@H]2C1 [Compound 9, Hederagenin, reference compound] | 78 ± 3 | hABHD12 inhibitory activity (in words) (hABHD12): did not inhibit hABHD12
7 | CC1(C)CC[C@]2(C)CC[C@]3(C)C(=CC[C@@H]4[C@@]5(C)CC[C@H](O)C(C)(C)[C@@H]5CC[C@]43C)[C@@H]2C1 [Compound 10, β-Amyrin, reference compound] | > 100 | –
8 | COC(=O)[C@]12CCC(C)(C)C[C@H]1[C@H]1C(=O)C=C3[C@@]4(C)C=C(C#N)C(=O)C(C)(C)[C@@H]4CC[C@@]3(C)[C@]1(C)CC2 [Compound 13, CDDO methyl ester, reference compound] | > 100 | –
9 | CC1=C(O)C(=O)C=C2C1=CC=C1[C@@]2(C)CC[C@@]2(C)[C@@H]3C[C@](C)(C(=O)O)CC[C@]3(C)CC[C@]12C [Compound 14, Celastrol, reference compound] | > 100 | –
10 | COC(=O)[C@]1(C)CC[C@]2(C)CC[C@]3(C)C4=CC=C5C(=CC(=O)C(O)=C5C)[C@]4(C)CC[C@@]3(C)[C@@H]2C1 [Compound 15, Pristimerin, reference compound] | – | remaining activity at 10 µM (hABHD12): > 100%
11 | C=C(C)[C@@H]1CC[C@]2(C=O)CC[C@]3(C)[C@H](CC[C@@H]4[C@@]5(C)CC[C@H](O)C(C)(C)[C@@H]5CC[C@]43C)[C@@H]12 [Compound 16] | 71 ± 0.8 | inhibition at 10 µM (hABHD12): ~30%
12 | C=C(C)[C@@H]1CC[C@]2(C(=O)NCCC)CC[C@]3(C)[C@H](CC[C@@H]4[C@@]5(C)CCC(=O)C(C)(C)[C@@H]5CC[C@]43C)[C@@H]12 [Compound 20] | 84 ± 1.5 | –
13 | C=C(C)[C@@H]1CC[C@]2(C(=O)N3CCCC3)CC[C@]3(C)[C@H](CC[C@@H]4[C@@]5(C)CCC(=O)C(C)(C)[C@@H]5CC[C@]43C)[C@@H]12 [Compound 21] | 80 ± 0.3 | –
14 | C=C(C)[C@@H]1CC[C@]2(COC(=O)/C=C/c3ccccc3)CC[C@]3(C)[C@H](CC[C@@H]4[C@@]5(C)CC[C@H](O)C(C)(C)[C@@H]5CC[C@]43C)[C@@H]12 [Compound 26] | > 100 | –
15 | C=C(C)[C@@H]1CC[C@]2(COC(=O)CCC(C)=O)CC[C@]3(C)[C@H](CC[C@@H]4[C@@]5(C)CC[C@H](O)C(C)(C)[C@@H]5CC[C@]43C)[C@@H]12 [Compound 27] | 85 ± 0.5 | –
16 | C=C(C)[C@@H]1CC[C@]2(COC(=O)CCC(C)=O)CC[C@]3(C)[C@H](CC[C@@H]4[C@@]5(C)CC[C@H](OC(=O)CCC(C)=O)C(C)(C)[C@@H]5CC[C@]43C)[C@@H]12 [Compound 28] | > 100 | –
17 | C=C(C)[C@@H]1CC[C@]2(COC3CCCCO3)CC[C@]3(C)[C@H](CC[C@@H]4[C@@]5(C)CC[C@H](O)C(C)(C)[C@@H]5CC[C@]43C)[C@@H]12 (stereo partly shown) [Compound 29] | > 100 | –
18 | C=C(C)[C@@H]1CC[C@]2(CO)CC[C@]3(C)[C@H](CC[C@@H]4[C@@]5(C)CC[C@H](OC(C)=O)C(C)(C)[C@@H]5CC[C@]43C)[C@@H]12 [Compound 30] | > 100 | –
19 | C=C(C)[C@@H]1CC[C@]2(C(=O)O)CC[C@]3(C)[C@H](CC[C@@H]4[C@@]5(C)CC(O)C(O)C(C)(C)[C@@H]5CC[C@]43C)[C@@H]12 (stereo partly drawn) [Compound 32, 2β,3β-Dihydroxylup-20(29)-en-28-oic acid] | – | IC50 (hABHD12; [2]): 3.72 µM; Emax (hABHD12; hABHD12-HEK293 lysates): 100%
20 | CC1(C)CC[C@]23CC[C@]4(C)C(CC[C@@H]5[C@@]6(C)Cc7c([nH]c8ccc(F)cc78)C(C)(C)[C@@H]6CC[C@]54C)[C@H]2[C@H]1OC3 (stereo partly shown) [Compound 35] | > 100 | inhibition at 10 µM (hMAGL): ~50%; hABHD12 inhibitory activity (in words) (hABHD12): total loss of the inhibitory activity
21 | C=C(C)[C@@H]1CC[C@]2(C(=O)O)CC[C@]3(C)[C@H](CC[C@@H]4[C@@]5(C)Cc6c[nH]nc6C(C)(C)[C@@H]5CC[C@]43C)[C@@H]12 [Compound 37] | – | IC50 (hABHD12; [2]): 1.45 µM; Emax (hABHD12; hABHD12-HEK293 lysates): 100%
22 | C=C(C)[C@@H]1CC[C@]2(C=O)CC[C@]3(C)[C@H](CC[C@@H]4[C@@]5(C)Cc6cnoc6C(C)(C)[C@@H]5CC[C@]43C)[C@@H]12 [Compound 38] | 84 ± 1.6 | hABHD12 inhibitory activity (in words) (hABHD12): poor inhibitory activity; also recorded: complete loss of the inhibitory activity
23 | CC(C)[C@@]12CC[C@]3(CO)CC[C@]4(C)C(=C31)C(C[C@@H]1[C@@]3(C)CC[C@H](O)C(C)(C)[C@@H]3CC[C@]14C)n1c(=O)n(-c3ccccc3)c(=O)n12 (stereo partly shown) [Compound 39] | 86 ± 0.4 | –
24 | C=C(C)[C@@H]1CC[C@]2(C(=O)O)CC[C@]3(C)[C@H](CC[C@@H]4[C@@]5(C)Cc6ncccc6C(C)(C)[C@@H]5CC[C@]43C)[C@@H]12 [Compound 40, Lupa-2,20(29)-dieno[2,3-b]pyridin-28-oic acid] | 66 ± 1.1 | inhibition at 10 µM (hABHD12): 34%
25 | C=C(C)[C@@H]1CC[C@]2(C(=O)O)CC[C@]3(C)[C@H](CC[C@@H]4[C@@]5(C)Cc6cccnc6C(C)(C)[C@@H]5CC[C@]43C)[C@@H]12 [Compound 41] | – | IC50 (hABHD12; [2]): 6.61 µM; IC50 (hABHD12; [3]): 6.7 µM; Emax (hABHD12; hABHD12-HEK293 lysates): 80%
26 | C=C(C)[C@@H]1CC[C@]2(C(=O)O)CC[C@]3(C)[C@H](CC[C@@H]4[C@@]5(C)Cc6nccnc6C(C)(C)[C@@H]5CC[C@]43C)[C@@H]12 [Compound 42] | – | IC50 (hABHD12; [2]): 3.55 µM; IC50 (hABHD12; [3]): 3.6 µM; Emax (hABHD12; hABHD12-HEK293 lysates): 56%
27 | C=C(C)[C@@H]1CC[C@]2(C(N)=O)CC[C@]3(C)[C@H](CC[C@@H]4[C@@]5(C)Cc6nccnc6C(C)(C)[C@@H]5CC[C@]43C)[C@@H]12 [Compound 43] | 69 ± 0.8 | –
